From PubChem BioAssay AID248 (DTP/NCI, 2004)
Values joined by “and” are separate entries in the source; they are usually repeats but may differ in a detail not shown here. Identical values can stand only once. Toxic doses and inconclusive results are not listed.

Test system: L1210 leukemia ip in BDF1 mice, survival T/C
Assay: NCI In Vivo Anticancer Drug Screen. Data for tumor model L1210 Leukemia (intraperitoneal) in B6D2F1 (BDF1) mice
Settings: endpoint: mean survival time, higher = longer survival
Procedure, shortened: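 Survival endpoint. Drug-treated group vs vehicle group, expressed as T divided by C. Tumor passaged by transplantation.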

[1] = dose: 50.0 mg/kg/injection, schedule: Q01DX009 (ip), vehicle: Klucel (hydroxypropylcellulose) (HPC)
[2] = dose: 100.0 mg/kg/injection, schedule: Q01DX009 (ip), vehicle: Klucel (hydroxypropylcellulose) (HPC)
[3] = dose: 100.0 mg/kg/injection, schedule: Q04DX003 (ip), vehicle: Klucel (hydroxypropylcellulose) (HPC)
[4] = dose: 200.0 mg/kg/injection, schedule: Q01DX009 (ip), vehicle: Klucel (hydroxypropylcellulose) (HPC)
[5] = dose: 200.0 mg/kg/injection, schedule: Q04DX003 (ip), vehicle: Klucel (hydroxypropylcellulose) (HPC)
[6] = dose: 400.0 mg/kg/injection, schedule: Q01DX009 (ip), vehicle: Klucel (hydroxypropylcellulose) (HPC)
[7] = dose: 100.0 mg/kg/injection, schedule: Q01DX009 (ip), vehicle: saline with Tween-80
[8] = dose: 100.0 mg/kg/injection, schedule: Q04DX003 (ip), vehicle: saline with Tween-80
[9] = dose: 200.0 mg/kg/injection, schedule: Q01DX009 (ip), vehicle: saline with Tween-80
[10] = dose: 200.0 mg/kg/injection, schedule: Q04DX003 (ip), vehicle: saline with Tween-80
[11] = dose: 400.0 mg/kg/injection, schedule: Q01DX009 (ip), vehicle: saline with Tween-80
[12] = dose: 400.0 mg/kg/injection, schedule: Q04DX003 (ip), vehicle: saline with Tween-80
[13] = dose: 50.0 mg/kg/injection, schedule: Q01DX001 (ip), vehicle: saline

In the case of `COc1cc(OC)c(/C=C2\N=C(c3ccccc3)OC2=O)c(OC)c1`, the T/C (dose: 100.0 mg/kg/injection, schedule: Q04DX002 (ip), vehicle: other) is reported as 91 % of control, the T/C (dose: 200.0 mg/kg/injection, schedule: Q04DX002 (ip), vehicle: other) is reported as 102 % of control and the T/C (dose: 400.0 mg/kg/injection, schedule: Q04DX002 (ip), vehicle: other) is reported as 88 % of control.
In the case of `CCCCCc1[nH]c(=O)[nH]c(=O)c1N=Nc1ccccc1`, the T/C (dose: 100.0 mg/kg/injection, schedule: Q01DX001 (ip), vehicle: saline with Tween-80) is reported as 98 % of control, the T/C (dose: 200.0 mg/kg/injection, schedule: Q01DX001 (ip), vehicle: saline with Tween-80) is reported as 97 % of control and the T/C (dose: 400.0 mg/kg/injection, schedule: Q01DX001 (ip), vehicle: saline with Tween-80) is reported as 100 % of control.
With `C1=C(c2ccccc2)CCC1` the T/C [1] was 97 % of control, the T/C [2] was 97 % of control and the T/C [3] was 97 % of control. The T/C [4] was 100 % of control and the T/C [5] was 101 % of control.
With `Cc1cnc(-n2nc(-c3ccccc3)c3c2-c2ccccc2C3)nc1-c1ccccc1O` the T/C (dose: 6.25 mg/kg/injection, schedule: Q01DX009 (ip), vehicle: Klucel (hydroxypropylcellulose) (HPC)) was 91 % of control and the T/C (dose: 12.5 mg/kg/injection, schedule: Q01DX009 (ip), vehicle: Klucel (hydroxypropylcellulose) (HPC)) was 87 % of control.
`Oc1ccc(Nc2ccnc3cc(Cl)ccc23)cc1CN(CCCl)CCCl` was tested, and the T/C (dose: 5.0 mg/kg/injection, schedule: Q01DX001 (ip), vehicle: saline) was 109 % of control and the T/C (dose: 10.0 mg/kg/injection, schedule: Q01DX001 (ip), vehicle: saline) was 109 % of control.
In the case of `Cc1cc(C)c(NC(=O)Nc2cccc3ccccc23)c(C)c1`, the T/C (dose: 25.0 mg/kg/injection, schedule: Q01DX009 (ip), vehicle: Klucel (hydroxypropylcellulose) (HPC)) is reported as 95 % of control, the T/C [1] is reported as 96 % of control and the T/C [2] is reported as 96 % of control and 103 % of control. For the same compound, the T/C [3] was 96 % of control, the T/C [4] was 92 % of control and the T/C [5] was 93 % of control. For the same compound, the T/C [6] was 91 % of control and the T/C (dose: 400.0 mg/kg/injection, schedule: Q04DX003 (ip), vehicle: Klucel (hydroxypropylcellulose) (HPC)) was 96 % of control.
`O=C(Nc1ccccc1)N(Cc1ccccc1)c1ccccc1` was tested, and the T/C [7] was 90 % of control, the T/C [8] was 101 % of control and the T/C [9] was 89 % of control. For the same compound, the T/C [10] was 101 % of control, the T/C [11] was 96 % of control and the T/C [12] was 86 % of control.
For `CC(=O)Nc1ccc(Cc2cc(=O)[nH]c(=O)[nH]2)cc1`, the T/C (dose: 9.38 mg/kg/injection, schedule: Q01DX001 (ip), vehicle: saline with Tween-80) was 106 % of control, the T/C (dose: 18.75 mg/kg/injection, schedule: Q01DX001 (ip), vehicle: saline with Tween-80) was 96 % of control and the T/C (dose: 37.5 mg/kg/injection, schedule: Q01DX001 (ip), vehicle: saline with Tween-80) was 104 % of control.
In the case of `O=C(Nc1ccc2ccccc2c1)c1ccc(Cl)c(Cl)c1`, the T/C [2] is reported as 95 % of control, the T/C [4] is reported as 103 % of control and the T/C [6] is reported as 103 % of control.
In the case of `CC(=O)O/N=C\C(C)=N\OC(C)=O`, the T/C (dose: 15.0 mg/kg/injection, schedule: Q01DX Z (ip), vehicle: saline) is reported as 109 % of control, the T/C (dose: 30.0 mg/kg/injection, schedule: Q01DX Z (ip), vehicle: saline) is reported as 109 % of control and the T/C (dose: 60.0 mg/kg/injection, schedule: Q01DX Z (ip), vehicle: saline) is reported as 107 % of control. The T/C (dose: 120.0 mg/kg/injection, schedule: Q01DX Z (ip), vehicle: saline) was 107 % of control.
In the case of `CCCSc1nc(N)nc2nc[nH]c12`, the T/C (dose: 1.25 mg/kg/injection, schedule: Q01DX Z (ip), vehicle: carboxymethylcellulose (CMC)) is reported as 91 % of control, the T/C (dose: 2.5 mg/kg/injection, schedule: Q01DX Z (ip), vehicle: carboxymethylcellulose (CMC)) is reported as 114 % of control and the T/C (dose: 2.9 mg/kg/injection, schedule: Q01DX Z (ip), vehicle: carboxymethylcellulose (CMC)) is reported as 114 % of control. For the same compound, the T/C (dose: 4.4 mg/kg/injection, schedule: Q01DX Z (ip), vehicle: carboxymethylcellulose (CMC)) was 116 % of control, the T/C (dose: 5.0 mg/kg/injection, schedule: Q01DX Z (ip), vehicle: carboxymethylcellulose (CMC)) was 118 % of control and the T/C (dose: 8.3 mg/kg/injection, schedule: Q01DX009 (ip), vehicle: saline) was 102 % of control. The T/C (dose: 12.0 mg/kg/injection, schedule: Q01DX009 (ip), vehicle: saline) was 105 % of control, the T/C (dose: 20.0 mg/kg/injection, schedule: Q01DX Z (ip), vehicle: carboxymethylcellulose (CMC)) was 151 % of control and 168 % of control and the T/C (dose: 29.0 mg/kg/injection, schedule: Q01DX009 (ip), vehicle: Klucel (hydroxypropylcellulose) (HPC)) was 121 % of control. For the same compound, the T/C (dose: 40.0 mg/kg/injection, schedule: Q01DX Z (ip), vehicle: carboxymethylcellulose (CMC)) was 150 % of control and 153 % of control and 156 % of control, the T/C (dose: 62.0 mg/kg/injection, schedule: Q01DX001 (ip), vehicle: other) was 108 % of control and the T/C (dose: 62.0 mg/kg/injection, schedule: Q## X001 (ip), vehicle: other) was 119 % of control. The T/C (dose: 90.0 mg/kg/injection, schedule: Q01DX Z (ip), vehicle: carboxymethylcellulose (CMC)) was 105 % of control, the T/C (dose: 125.0 mg/kg/injection, schedule: Q01DX001 (ip), vehicle: other) was 118 % of control and 88 % of control and the T/C (dose: 125.0 mg/kg/injection, schedule: Q## X001 (ip), vehicle: other) was 123 % of control. The T/C (dose: 135.0 mg/kg/injection, schedule: Q01DX Z (ip), vehicle: carboxymethylcellulose (CMC)) was 92 % of control, the T/C (dose: 160.0 mg/kg/injection, schedule: Q01DX Z (ip), vehicle: carboxymethylcellulose (CMC)) was 151 % of control and the T/C (dose: 200.0 mg/kg/injection, schedule: Q01DX009 (ip), vehicle: saline) was 90 % of control. The T/C (dose: 250.0 mg/kg/injection, schedule: Q01DX001 (ip), vehicle: other) was 120 % of control and 124 % of control, the T/C (dose: 300.0 mg/kg/injection, schedule: Q01DX001 (ip), vehicle: other) was 115 % of control and 118 % of control and the T/C (dose: 300.0 mg/kg/injection, schedule: Q## X001 (ip), vehicle: other) was 117 % of control. The T/C (dose: 400.0 mg/kg/injection, schedule: Q01DX001 (ip), vehicle: other) was 101 % of control, the T/C (dose: 400.0 mg/kg/injection, schedule: Q## X001 (ip), vehicle: other) was 101 % of control and the T/C (dose: 500.0 mg/kg/injection, schedule: Q## X001 (ip), vehicle: other) was 203 % of control.
In the case of `CC(=O)N(C)N`, the T/C (dose: 12.5 mg/kg/injection, schedule: Q01DX009 (ip), vehicle: saline) is reported as 98 % of control, the T/C (dose: 12.5 mg/kg/injection, schedule: Q04DX003 (ip), vehicle: saline) is reported as 112 % of control and the T/C (dose: 25.0 mg/kg/injection, schedule: Q01DX009 (ip), vehicle: saline) is reported as 103 % of control. For the same compound, the T/C (dose: 25.0 mg/kg/injection, schedule: Q04DX003 (ip), vehicle: saline) was 106 % of control, the T/C (dose: 50.0 mg/kg/injection, schedule: Q01DX009 (ip), vehicle: saline) was 104 % of control and the T/C (dose: 50.0 mg/kg/injection, schedule: Q04DX003 (ip), vehicle: saline) was 106 % of control. The T/C (dose: 100.0 mg/kg/injection, schedule: Q01DX009 (ip), vehicle: saline) was 117 % of control, the T/C (dose: 100.0 mg/kg/injection, schedule: Q04DX003 (ip), vehicle: saline) was 108 % of control and the T/C (dose: 200.0 mg/kg/injection, schedule: Q04DX003 (ip), vehicle: saline) was 105 % of control.
With `Cn1cnccc1=S` the T/C (dose: 25.0 mg/kg/injection, schedule: Q01DX001 (ip), vehicle: saline) was 96 % of control and the T/C [13] was 108 % of control.
For `Cc1cc(C(C)(C)C)c(Oc2ccc([N+](=O)[O-])cc2S(=O)(=O)O)c(C(C)(C)C)c1`, the T/C [7] was 86 % of control and the T/C [11] was 88 % of control.
In the case of `CC(C)(O)C1(O)CCCC1`, the T/C [13] is reported as 95 % of control, the T/C (dose: 100.0 mg/kg/injection, schedule: Q01DX001 (ip), vehicle: saline) is reported as 93 % of control and the T/C (dose: 200.0 mg/kg/injection, schedule: Q01DX001 (ip), vehicle: saline) is reported as 101 % of control. The T/C (dose: 400.0 mg/kg/injection, schedule: Q01DX001 (ip), vehicle: saline) was 93 % of control.
For `COc1ccc(-c2nc3cc(Cl)ccc3c(=O)o2)cc1`, the T/C [7] was 94 % of control, the T/C [9] was 94 % of control and the T/C [11] was 90 % of control.
In the case of `CN(C)/N=N/c1nc(CCCc2ccccc2)[nH]c1C(N)=O`, the T/C [8] is reported as 98 % of control, the T/C [10] is reported as 103 % of control and the T/C [12] is reported as 110 % of control.
`ClC1C2CC3C(C2)C13` (centres undefined) was tested, and the T/C (dose: 100.0 mg/kg/injection, schedule: Q01DX001 (ip), vehicle: carboxymethylcellulose (CMC)) was 95 % of control, the T/C (dose: 200.0 mg/kg/injection, schedule: Q01DX001 (ip), vehicle: carboxymethylcellulose (CMC)) was 95 % of control and the T/C (dose: 400.0 mg/kg/injection, schedule: Q01DX001 (ip), vehicle: carboxymethylcellulose (CMC)) was 95 % of control.
